According to US20250263376A1, “(E)-N-CINNAMOYLAMINOALKANOLS WITH MELANOGENESIS INHIBITORY ACTIVITY” (Uniwersytet Jagiellonski, priority 2024, published 2025):
Where two headings read alike, the source gives them in different places.

Legend:
tyrosinase [1] = conditions: literature [11], cited from earlier work
[2] = cream, 7-day application before UV exposure, compared to untreated skin; literature [8]; cited from earlier work
tyrosinase [3] = conditions: cited from earlier work; for mechanism of tyrosinase inhibition: literature [6,7]
[4] = test system: Balb/c 3T3 murine fibroblast cell line; assay: Phototoxicity, neutral red uptake in Balb/c 3T3 fibroblasts
Experimental: d) Phototoxicity Assessment Using the Balb/c 3T3 Murine Fibroblast Cell Line
Balb/c 3T3 cells, which are an immortalized murine fibroblast cell line, were purchased at ATTC and cultured in the medium recommended by the manufacturer (DMEM GlutaMAX, newborn calf serum (BCS), antibiotics). After multiplication, cells were placed in 96-well plates, which were incubated for 24 hours, after which all wells of the plates were washed with 150 μL of balanced salt solution (HBSS). Then, after drying the plates, 100 μL of a solution of the tested compounds in HBSS with 2% FBS was added to each well and incubated for an hour. After this time, some of the plates were irradiated using the Suntest CPS+sunlight simulator from Atlas with appropriate filters cutting off radiation with a wavelength <320 nm (UVA radiation intensity 5 J/cm^2). The second part of the plates was placed in radiation-free conditions for the same period of time. After the exposure time, the liquid was removed from all plates and the wells were washed twice with 150 μL of HBSS, then supplemented with fresh culture medium and incubated for 24 hours in an incubator (37° C., 5% CO2). Viability was assessed in the neutral red uptake test, which is based on the ability of the dye to penetrate only into living cells. Dye uptake was confirmed by absorbance measurement at 540 nm. […] The appropriate coefficients were also calculated: mean phototoxic effect (MPE) and photoirritation factor (PIF). PIF is the ratio of the IC50 values of unirradiated to irradiated cells, while MPE is based on the comparison of concentration-response curves.

[5] = test system: reconstituted human epidermis EpiDerm; conditions: 21 h, 0.01 %
Experimental: Phototoxicity Studies in a Model of Reconstructed Human Epidermis.
An epidermis with an area of 0.6 cm^2 was used. After receiving the tissue, the inserts were transferred to fresh medium and incubated in an incubator (5% CO2, 37° C.). All work during epidermis culture and application of the tested compounds and formulations was carried out in a laminar air flow chamber, using aseptic principles and sterile reagents and utensils. […] The applied solutions and formulation were spread on the surface of the inserts using a sterile glass bulb headed Pasteur pipette. The plates were incubated in the incubator for 21 hours, after which the inserts were transferred to new 6-well plates with 0.9 mL DBPS. 1 plate was exposed to UVA radiation at a dose of 6 J/cm^2 using a solar light simulator (Solar Simulator, Atlas) as its source (+UVA plate). The second plate was placed in a dark place outside the incubator for the same period of time (−UVA plate). After exposure, inserts from both plates were rinsed with DPBS, dried with a sterile cotton bud and placed in new plates containing 0.9 mL of fresh growth medium and incubated for 21 hours. […] After this time, the formed formazan was extracted into isopropanol and the absorbance of all samples was read at 270 nm.

[6] = test system: human reconstructed epidermis Episkin; assay: Skin irritation test in reconstructed human epidermis Episkin; assay type: cell-based; conditions: 15 min exposure
Text: Skin Irritation Tests in a Reconstructed Human Epidermis Model (Episkin™)

E. coli WP2 = assay: Ames microplate test, E. coli WP2;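 further: bacteria exposed to compound for 90 min at 37 °C in 24-well plates, then transferred with indicator medium to 384-well plates and incubated 48 h before yellow well counting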
Experimental: (§4) The study used the Ames microplate test (Ames MPF™ Penta 2 by Xenometrix, Allschwil, Switzerland). Growth medium, exposure medium, indicator medium, positive controls, hepatic microsomal fraction, NADP, glucose-6-phosphate, Salmonella typhimurium and Escherichia coli strains were components of the purchased experimental kit. Bacteria were grown overnight in growth medium. They were then exposed to the test compound at the appropriate concentration in exposure medium without or with the rat microsomal fraction S9 in 24-well plates for 90 min at 37° C. with shaking. Then, indicator medium was added to the wells and pipetted into 384-well plates, which were incubated for 48 hours at 37° C. without shaking. Results were assessed by counting the wells in which the medium turned yellow for each experimental condition.

tyrosinase from mushroom [7] = target: T1, tyrosinase from mushroom (Agaricus bisporus, UniProt C7FF04); assay: Inhibition of commercial mushroom tyrosinase, substrate L-tyrosine; assay type: biochemical; conditions: 500 μM; read-out: Tyrosinase inhibition with L-tyrosine [%]
Experimental: (§1) Studies on the Inhibition of the Activity of Commercial Tyrosinase from Mushroom (Sigma: T3824)
(§2) The following substrates were used for the enzymatic reaction: L-tyrosine and L-3,4-dihyroxyphenylalanine (L-DOPA). Both substrates were used in independent experiments. According to the literature, the use of L-DOPA enables the assessment of tyrosinase diphenolase activity, and L-tyrosine—the tyrosinase monophenolase activity. The determinations were performed in 96-well plates, in each well there was placed: 170 μL or 127.5 μL of 50 mM phosphate buffer (pH=6.8) with tyrosinase (1U/well or 3U/well) and 10 μL of a solution of the tested compound in DMSO (the final concentration in the well was 500 μM, 250 μM or 125 μM). The negative control used 10 u L of pure solvent (DMSO). To initiate the reaction, an appropriate substrate was added: L-tyrosine (62.5 μL of solution in phosphate buffer) or L-DOPA (20 μL of solution in phosphate buffer). After a 25-minute incubation, the absorbance was measured at 475 nm using a microplate reader. The percentage of inhibition of tyrosinase activity was calculated using the formula: [(AC−AT)/[…], where AC—is the absorbance of the negative control, AT—is the absorbance of the sample containing the tested compound.

S. typhimurium TA100 = assay: Ames microplate test, TA100; assay type: cell-based, Salmonella typhimurium
Experimental: as §4

[8] = test system: B16-F10 murine melanoma cell line; assay: Cytotoxicity (MTT) in B16-F10 murine melanoma cells; assay type: cell-based; conditions: 48 h
Experimental: Cytotoxicity Assessment in the B16-F10 Murine Melanoma Cell Line (ATTC CRL-6745)—Preliminary Safety Assessment for Subsequent Studies
In order to determine safe doses of compounds for testing the inhibition of melanogenesis in a murine melanoma cell line, cytotoxicity tests were performed. Cytotoxicity was determined by the colorimetric method using MTT ([3-(4,5-dimethyl-2-thiazolyl)-2,5-diphenyl-2H-tetrazolium bromide, Sigma M5655). For this purpose, cells were transferred to 96-well plates in an amount of 5000/well. After 24 h of culture in an incubator in F10-Ham medium with 1% FBS, the tested compounds at various concentrations were added to the wells together with fresh medium. DMSO was added to the medium in a negative control. The MTT test was performed after further culture for 48 h. Then the medium was removed and the formed formazan crystals were dissolved in DMSO. The absorbance was measured at 570 nm in a plate reader and the result was compared to the control (DMSO), which was 100%. The percentage of viability was calculated using the formula: [AT/AC*100], where AT is the absorbance of the test sample, AC—absorbance of the control sample.

S. typhimurium TA98 = assay: Ames microplate test, TA98; assay type: cell-based, Salmonella typhimurium
Experimental: (§3) Bacteria were grown overnight in growth medium.

[9] = Lipophilicity coefficient RM0 by reversed phase thin layer chromatography; assay type: physicochemical; conditions: RP-18 TLC, methanol/phosphate buffer pH=7.4
Experimental: Confirmation of the identity and purity of the obtained compounds consisted in the registration and interpretation of 1H NMR and 13C NMR spectra (the spectra were recorded using an ECZR 500 MHZ (JEOL) series FT-NMR spectrophotometer), as well as the registration and interpretation of LC-MS spectra (the spectra were recorded using Acquita UPLC system (Waters) coupled with a Waters TQD mass spectrometer). The melting point was measured using the open capillary method in the IA9300 device (Electrothermal). The lipophilicity coefficient RM0 was determined by reversed phase thin layer chromatography. In the study, aluminum plates 20×20 cm covered with modified silica gel RP-18 F254 (Merck) were used as the solid phase. The mobile phase consisted of solutions of methanol and 100 mM phosphate buffer (pH=7.4), characterized by a variable methanol content ranging from 95 to 65% (v/v). The tested compounds were dissolved in methanol to obtain solutions with a concentration of 1 mg/mL. Then, […] of the solutions prepared in this way were transferred to the starting line on aluminum plates, which were then placed in chromatographic chambers previously saturated with mobile phase vapors for at least 1 hour. All activities, including the development of chromatograms, were carried out at room temperature. After developing the chromatograms to approximately 1-2 cm from the end of the plate, the plates were dried and then the distance traveled by the tested compounds was visualized under UV light (λ=254 nm). The experiment was performed in duplicate for the specified conditions. For all samples, Rf was calculated according to the formula Rf=a/b, where a—the distance traveled by the tested compound, b—the distance traveled by the mobile phase. Then, the RM parameter was calculated for all samples according to the formula RM=log (1/Rf−1), obtaining a linear relationship between the RM values and the methanol concentration in the mobile phase. The log P coefficient was also calculated using the following computer programs: ACD/ChemSketch 2020.1.2 and ChemDraw 20.0.0.41.

S. typhimurium TA1537 = assay: Ames microplate test, TA1537; assay type: cell-based, Salmonella typhimurium
Experimental: as §3

tyrosinase from mushroom [10] = target: T1, tyrosinase from mushroom; assay: Inhibition of commercial mushroom tyrosinase, substrate L-DOPA; assay type: biochemical; conditions: 500 μM; read-out: Tyrosinase inhibition with L-DOPA [%]
Experimental: as §1, §2

S. typhimurium TA1535 = assay: Ames microplate test, TA1535;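 further: bacteria exposed 90 min at 37 °C in exposure medium, then 48 h in indicator medium in 384-well plates, yellow (revertant) wells counted per condition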
CHO-K1 cells = assay: Cytotoxicity (MTT) in CHO-K1 cells before the micronucleus test; assay type: cell-based, Chinese hamster; conditions: 24 hours
Experimental: The assay was performed using a Chinese hamster ovary cell line (CHO-K1) purchased from the American Type Culture Collection (ATCC). The cells were cultured in F-12K medium with the addition of 10% fetal bovine serum (FBS) and antibiotics (streptomycin/penicillin) in an incubator at 37° C. and 5% CO2 concentration). Before the actual micronucleus test, a cytotoxicity assessment was performed to ensure that the actual test was performed only at safe concentrations. For this purpose, cells were transferred to 96-well plates and incubated with the tested compounds for 24 hours. After this time, the MTT test was performed and cell viability was assessed in comparison to the control group (cells cultured with DMSO at the same concentration as in the case of the tested samples).

[11] = literature [6], read-out: IC50, tyrosinase diphenolase activity
[12] = literature [7], read-out: IC50, tyrosinase inhibition

T1 sequence (C7FF04 2-392): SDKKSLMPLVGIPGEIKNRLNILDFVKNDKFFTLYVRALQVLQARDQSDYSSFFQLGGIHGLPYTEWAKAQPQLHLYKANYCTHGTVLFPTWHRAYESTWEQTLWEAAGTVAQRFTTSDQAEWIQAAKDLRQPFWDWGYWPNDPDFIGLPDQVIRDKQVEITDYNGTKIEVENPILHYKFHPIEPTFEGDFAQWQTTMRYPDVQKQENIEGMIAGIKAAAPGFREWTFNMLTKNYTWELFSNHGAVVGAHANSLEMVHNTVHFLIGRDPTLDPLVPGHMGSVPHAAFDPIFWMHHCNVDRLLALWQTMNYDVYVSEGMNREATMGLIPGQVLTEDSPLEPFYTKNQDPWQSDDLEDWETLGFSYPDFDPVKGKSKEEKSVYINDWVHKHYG
T1 sequence (G1K3P4 entry or part of it, further chain): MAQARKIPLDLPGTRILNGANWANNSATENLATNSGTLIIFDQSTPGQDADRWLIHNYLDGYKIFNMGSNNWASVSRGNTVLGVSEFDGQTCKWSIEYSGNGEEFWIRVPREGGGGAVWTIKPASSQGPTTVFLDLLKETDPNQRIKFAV

CCOC(=O)[C@H](Cc1ccccc1)NC(=O)/C=C/c1ccc(O)c(OC)c1 [N-[3-(4-hydroxy-3-methoxyphenyl)-1-oxo-2-propen-1-yl]-L-phenylalanine ethyl ester]
type of tyrosinase inhibition (tyrosinase [1]): mixed type of inhibition
IC50 (tyrosinase [1]; read-out: IC50, tyrosinase inhibition): 0.185 ± 0.005 µM

O=C(O)C=Cc1ccc(O)cc1 [4-Hydroxycinnamic acid]
inhibition of erythema formation [2]: 77%
IC50 (tyrosinase [3]; [11]): 500 µM

CN(C)CCCN1c2ccccc2Sc2ccc(Cl)cc21 [Chlorpromazine, reference compound]
phototoxic potential [4]: clearly indicate its phototoxic potential
MPE (mean phototoxic effect) ([4]; mouse, 1 h): 0.499
PIF (photoirritation factor) ([4]; mouse, 1 h): 25.618
Viability [% relative to water] ± SD, +UVA [5]: 26.97 ± 6.05 % relative to water
Viability [% relative to water] ± SD, −UVA [5]: 99.52 ± 9.41 % relative to water

O=C(O)C=Cc1ccccc1Cl [2-Chlorocinnamic acid]
mechanism of tyrosinase inhibition (tyrosinase [3]): reversible non-competitive mechanism
IC50 (tyrosinase [3]; [12]): 765 µM

CCCCCCCCCCCCOS(=O)(=O)[O-].[Na+] [SDS, sodium dodecyl sulphate]
IL-1α concentration in the culture medium ([6]; 42 h incubation, compounds as PEG400 solutions 26 mg/cm^2, SDS 5% aqueous): >250 pg/mL
tissue viability ([6]; compared to the negative control (PBS and PEG400), 5% aqueous SDS): 23.8%

O=C(O)C=Cc1ccccc1 [Cinnamic acid]
mechanism of tyrosinase inhibition (tyrosinase [3]): non-competitive inhibitor

O=C(O)C=Cc1ccc(Cl)cc1Cl [2,4-dichlorocinnamic acid]
mechanism of tyrosinase inhibition (tyrosinase [3]): reversible non-competitive mechanism
IC50 (tyrosinase [3]; [12]): 295 µM

CCC(O)CNC(=O)/C=C/c1ccc(Cl)cc1 (centres unmarked) [Compound A-67, (2E)-3-(4-chlorophenyl)-N-(2-hydroxybutyl)prop-2-enamide]
Increase in the number of yellow wells compared to the reference level, E. coli WP2 (E. coli WP2; 0.5 mM, + S9): 0.83
Increase in the number of yellow wells compared to the reference level, E. coli WP2 (E. coli WP2; 0.5 mM, without S9): 0.50
Increase in the number of yellow wells compared to the reference level, E. coli WP2 (E. coli WP2; 1.0 mM, + S9): 0.42
Increase in the number of yellow wells compared to the reference level, E. coli WP2 (E. coli WP2; 1.0 mM, without S9): 1.00
Increase in the number of yellow wells compared to the reference level, E. coli WP2 (E. coli WP2; 2.0 mM, + S9): 1.42
Increase in the number of yellow wells compared to the reference level, E. coli WP2 (E. coli WP2; 2.0 mM, without S9): 0.83
inhibition at 500 µM (tyrosinase from mushroom [7]): 79.2 ± 1.2%
Increase in the number of yellow wells compared to the reference level, TA100 (S. typhimurium TA100; 0.5 mM, + S9): 0.78
Increase in the number of yellow wells compared to the reference level, TA100 (S. typhimurium TA100; 0.5 mM, without S9): 1.53
Increase in the number of yellow wells compared to the reference level, TA100 (S. typhimurium TA100; 1.0 mM, + S9): 0.64
Increase in the number of yellow wells compared to the reference level, TA100 (S. typhimurium TA100; 1.0 mM, without S9): 0.93
Increase in the number of yellow wells compared to the reference level, TA100 (S. typhimurium TA100; 2.0 mM, + S9): 0.31
Increase in the number of yellow wells compared to the reference level, TA100 (S. typhimurium TA100; 2.0 mM, without S9): 0.80
Cytotoxicity study in B16F10 cells, % viability ([8]; 150 μM): 73.6%
Cytotoxicity study in B16F10 cells, % viability ([8]; 200 μM): 87.8%
Cytotoxicity study in B16F10 cells, % viability ([8]; 250 μM): 84.4%
Increase in the number of yellow wells compared to the reference level, TA98 (S. typhimurium TA98; 0.5 mM, + S9): 0.31
Increase in the number of yellow wells compared to the reference level, TA98 (S. typhimurium TA98; 0.5 mM, without S9): 0.27
Increase in the number of yellow wells compared to the reference level, TA98 (S. typhimurium TA98; 1.0 mM, + S9): 0.94
Increase in the number of yellow wells compared to the reference level, TA98 (S. typhimurium TA98; 1.0 mM, without S9): 1.07
Increase in the number of yellow wells compared to the reference level, TA98 (S. typhimurium TA98; 2.0 mM, + S9): 1.04
Increase in the number of yellow wells compared to the reference level, TA98 (S. typhimurium TA98; 2.0 mM, without S9): 1.07
RM0 [9]: 2.46
Increase in the number of yellow wells compared to the reference level, TA1537 (S. typhimurium TA1537; 0.5 mM, + S9): 1.00
Increase in the number of yellow wells compared to the reference level, TA1537 (S. typhimurium TA1537; 0.5 mM, without S9): 0.00
Increase in the number of yellow wells compared to the reference level, TA1537 (S. typhimurium TA1537; 1.0 mM, + S9): 1.33
Increase in the number of yellow wells compared to the reference level, TA1537 (S. typhimurium TA1537; 1.0 mM, without S9): 0.18
Increase in the number of yellow wells compared to the reference level, TA1537 (S. typhimurium TA1537; 2.0 mM, + S9): 0.00
Increase in the number of yellow wells compared to the reference level, TA1537 (S. typhimurium TA1537; 2.0 mM, without S9): 0.82
inhibition at 500 µM (tyrosinase from mushroom [10]): 60.8 ± 1.99%
Increase in the number of yellow wells compared to the reference level, TA1535 (S. typhimurium TA1535; 0.5 mM, + S9): 0.27
Increase in the number of yellow wells compared to the reference level, TA1535 (S. typhimurium TA1535; 0.5 mM, without S9): 0.30
Increase in the number of yellow wells compared to the reference level, TA1535 (S. typhimurium TA1535; 1.0 mM, + S9): 0.54
Increase in the number of yellow wells compared to the reference level, TA1535 (S. typhimurium TA1535; 1.0 mM, without S9): 0.45
Increase in the number of yellow wells compared to the reference level, TA1535 (S. typhimurium TA1535; 2.0 mM, + S9): 0.13
Increase in the number of yellow wells compared to the reference level, TA1535 (S. typhimurium TA1535; 2.0 mM, without S9): 1.04
% Viability [mean], CHO-K1 (CHO-K1 cells; 100 μM): 96.0%
% Viability [mean], CHO-K1 (CHO-K1 cells; 150 μM): 90.3%
% Viability [mean], CHO-K1 (CHO-K1 cells; 200 μM): 84.0%

COc1ccc(C=CC(=O)O)cc1 [4-methoxycinnamic acid]
IC50 (tyrosinase [3]; [11]): 420 µM
